According to publication PMC8805316, “NanoBRET in C. elegans illuminates functional receptor interactions in real time” (BMC Molecular and Cell Biology, 2022):
Residues, ends and D or L forms follow the SMILES beside them. No end group written: not given here. *: point of attachment. 5TAMRA = CN(C)c1ccc2c(c1)Oc1cc(N(C)C)ccc1C21OC(=O)c2cc(C(=O)*)ccc21

Columns and labels:
[1] = target: T1, Nluc::NPR-11 (Caenorhabditis elegans, UniProt Q18179); assay: biochemical; assay type: binding, C. elegans
T1 construct: expressed in transfected cells; host or cells: transgenic C. elegans (extrachromosomal array, npr-11 knockout background), incised young adult worms
Procedure: (§1) All measurements were conducted using synchronized young adult worms (1 day post L4). Individuals were washed twice with HBSS (Hanks’ balanced salt solution with 25 mM HEPES, pH 7.4, 37 °C) and the number of worms/ μl was calculated.
For luminescence measurements of intact worms, animals (1; 10; 50; 100 or 500) were directly transferred into the wells of a white flat-bottom 384-well plate in 50 μl HBSS buffer. Worms to be cut were pre-washed with M9 + 0.1% Tween to avoid sticking of worms to the dish and subsequently transferred in 2 ml of HBSS. Incisions were made in the middle of the body with a scalpel blade and worms were immediately afterwards transferred with a glass pipette into HBSS buffer on ice. For mechanically cracking, a worm suspension was homogenized in tubes with 150 μl HBSS and six glass beads (Ø = 3 mm) using with a Precellys homogenizer (Bertin instruments, France) for 40 s at 5000 rpm. Samples were placed on ice until further usage. […]
Luminescence (L) and fluorescence (F) were detected with a microplate plate reader (Tecan Spark) using the following filter set: donor = 430–470 nm, acceptor = 550–700 nm with 1000 ms integration time. BRET was calculated by dividing F values by L values. […]

[2] = target: T2, NPR-11 (Caenorhabditis elegans, UniProt Q18179); assay: cAMP reporter gene assay, transfected HEK293 cells (Fig. S3B); assay type: cell-based, C. elegans; parameters: expressed in transfected cells; host or cells: HEK293 cells, co-transfected with reporter plasmid pGL4.29 [luc2P/CRE/Hygro]
T2 sequence (Q18179 1-402): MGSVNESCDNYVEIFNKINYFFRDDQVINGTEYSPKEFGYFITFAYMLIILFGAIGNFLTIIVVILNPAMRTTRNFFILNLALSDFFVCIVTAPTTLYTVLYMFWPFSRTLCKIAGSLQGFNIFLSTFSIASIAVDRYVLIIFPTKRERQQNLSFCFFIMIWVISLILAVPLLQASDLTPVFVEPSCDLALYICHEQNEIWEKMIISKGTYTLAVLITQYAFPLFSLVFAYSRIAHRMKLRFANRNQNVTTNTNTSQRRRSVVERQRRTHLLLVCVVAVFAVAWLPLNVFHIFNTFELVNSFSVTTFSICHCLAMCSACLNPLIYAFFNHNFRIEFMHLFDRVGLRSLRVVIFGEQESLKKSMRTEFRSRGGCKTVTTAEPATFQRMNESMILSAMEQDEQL
Procedure: All in vitro experiments were carried out using either HEK293 cells (Homo sapiens, embryonic kidney, DSMZ (German Collection of Microorganisms and Cell Cultures) ACC 305) or COS-7 cells (African green monkey, cercopithecus aethiops, kidney, DSMZ (German Collection of Microorganisms and Cell Cultures) ACC 60). HEK293 cells were kept in Dulbecco’s Modified Eagle’s Medium (DMEM) with Ham’s F-12 (v/v) and 15% (v/v) heat-inactivated fetal calf serum (FCS), while COS-7 cells were cultured in DMEM with 10% (v/v) FCS and 1% (v/v) Penicillin-Streptomycin. All cells were kept at 37 °C under a humidified atmosphere (5% CO2).
NPR-11 activation was read out in the Gi/o pathway by a cAMP reporter gene assay in transiently transfected HEK293 cells as described previously. Briefly, HEK293 cells were grown to 70% confluency and transiently co-transfected with the receptor plasmid (2 μg) and the reporter gene plasmid pGL4.29 [luc2P/CRE/Hygro] (Promega; 2 μg) with MetafectenePro (Biontex). Cells were then re-seeded into 384-well plates. On the next day, the medium was removed, and the cells were stimulated with peptide solution (20 μl) containing 5 μM forskolin (stimulating intracellular cAMP levels) in DMEM and incubated for 4 h. Luciferase substrate OneGlo in lysis buffer (Promega) was added and incubated for 5 min. Luminescence was measured in a microplate reader (Tecan Spark). […]

[3] = target: T2, NPR-11; settings: read-out: inhibition binding constant Ki; TAM-FLP-34-1 as fluorescent tracer; ref [35]; cited from earlier work
[4] = tested on: NPR-11::Nluc; assay: Enhanced bystander BRET in vivo, NPR-11::Nluc and CAAX::mNG (Fig. 4C); parameters: species or system C. elegans
Procedure: Luminescence levels depended on the used strain, reaching (without ligand) approximately 2000 AU in Nluc::npr-11 animals and up to 32,000 AU in Nluc::lat-1 expressing worms. For enhanced bystander BRET analyses, 30 cut worms (APR716 and APR718) in 50 μl HBSS buffer were incubated for 10 min with 10 μl of Nano-Glo Live Cell Reagent (5x stock). Luminescence and fluorescence were measured once prior to peptide stimulation. Afterwards, FLP-34-1 (final concentration 5 μM) or H2O with 0.5% BSA and 2.5% DMSO as control were added to each well and luminescence and fluorescence was measured over the course of 80 min. The acceptor filter for this setting was altered to 505–605 nm, while the donor filter remained at 430–470 nm, as before.

[5] = target: T1, Nluc::NPR-11; assay: biochemical; assay type: binding, C. elegans; remark: listed apart in the source
Procedure: as §1
For luminescence measurements of intact worms, animals (1; 10; 50; 100 or 500) were directly transferred into the wells of a white flat-bottom 384-well plate in 50 μl HBSS buffer. Worms to be cut were pre-washed with M9 + 0.1% Tween to avoid sticking of worms to the dish and subsequently transferred in 2 ml of HBSS. Incisions were made in the middle of the body with a scalpel blade and worms were immediately afterwards transferred with a glass pipette into HBSS buffer on ice. For mechanically cracking, a worm suspension was homogenized in tubes with 150 μl HBSS and six glass beads (Ø = 3 mm) using with a Precellys homogenizer (Bertin instruments, France) for 40 s at 5000 rpm. Samples were placed on ice until further usage.
For BRET binding assays in vivo, the nanoluciferase (Nluc) was applied as energy donor and either peptides labeled with the TAM fluorophore or the mNeonGreen fluorescent protein fused to a receptor served as acceptor.
30 Nluc-expressing worms with incisions in 50 μl BRET buffer were incubated with dissolving buffer or peptide solutions of final concentrations ranging from 0.05–10 μM in a 384-well plate. During a 25 min incubation with gentle shaking, 10 μl Nano-Glo Live Cell Reagent (N2011, Promega, USA) of a 5x stock were added according to manufacturer’s instructions after 15 min to each well. Competition-binding assays were performed similarly, but additionally, unlabeled peptide (final concentrations 0.016–10 μM) was pipetted into each well and 5 μl of a 10x stock Nano-Glo Live cell reagent was applied after 15 min.
Luminescence (L) and fluorescence (F) were detected with a microplate plate reader (Tecan Spark) using the following filter set: donor = 430–470 nm, acceptor = 550–700 nm with 1000 ms integration time. BRET was calculated by dividing F values by L values. For each experiment, the background signal of donor-only cells was subtracted, such that the BRET ratio at 0 μM ligand equals 0.00. In Fig. 3B (left) and Fig. 3D, the mean of n = 4 (NPR-11) or n = 3 (LAT-1) independent, individually background-corrected single experiments is presented.

For ADISTFASAINNAGRLRY-NH2 [FLP-34-1], the Ki [1] is listed as 1100 nM, the EC50 [2] is listed as 2.3 nM and the Ki [3] is listed as 107 nM. The “time after which BRET increases again” value ([4]; 5 μM FLP-34-1) was over 70 min and the “change of bystander BRET signal over time” value ([4]; 5 μM FLP-34-1 vs untreated controls) was “decrease of BRET signal”.

`CC[C@H](C)[C@H](NC(=O)[C@H](C)NC(=O)[C@H](CO)NC(=O)[C@H](C)NC(=O)[C@H](Cc1ccccc1)NC(=O)[C@@H](NC(=O)[C@H](CO)NC(=O)[C@@H](NC(=O)[C@H](CC(=O)O)NC(=O)[C@H](C)NC(=O)c1ccc2c(c1)C(=O)OC21c2ccc(N(C)C)cc2Oc2cc(N(C)C)ccc21)[C@@H](C)CC)[C@@H](C)O)C(=O)N[C@@H](CC(N)=O)C(=O)N[C@@H](CC(N)=O)C(=O)N[C@@H](C)C(=O)NCC(=O)N[C@@H](CCCNC(=N)N)C(=O)N[C@@H](CC(C)C)C(=O)N[C@@H](CCCNC(=N)N)C(=O)N[C@@H](Cc1ccc(O)cc1)C(N)=O` [TAM-FLP-34-1] (5TAMRA-ADISTFASAINNAGRLRY-NH2) gave an EC50 [2] of 0.5 nM and a Kd [5] of 1400 nM.
